For data set [1] the following is noted: compared with Ga-P04087; no reference given for the value; cited from earlier work.
Protocol: Affinities of cold-labelled peptide (Ga-P04087) and the peptide of reference (R824) for phosphatidylserine were evaluated by enzyme-linked immunosorbent assay. A competitive binding assay procedure was performed: A 96-well plate (MICROLON plaque 200, med. Binding, F-bottom, GREINER) was coated with 200 μL/well of phosphatidylserine (PS) (Avanti Polar Lipids) (dissolved in ethanol (SIGMA ALDRICH) for a final concentration of 100 μg/mL).
Data set [2] concerns vegetations. The settings on record: vegetations of experimental endocarditis; ref Rouzet et al. [2008]; cited from earlier work. An excerpt: Otherwise, the presence of ^67Ga-P04087 uptake on autoradiography in contrast to the rapid degradation observed in vitro without the metalloprotease inhibitor, point out the discrepancies that could occur between in vitro and in vivo degradation even when low tracer amounts are used in vitro in order to avoid saturation of enzymes (García-Garayoa et al. [2001]). These positive autoradiography results extend the findings of histology experimentations on the binding of the agent to PS. However, comparatively to radiolabelled Annexin A5, the contrast was not sufficient to provide a detectable sig ...

The format of data set [3] is in vitro ADME, human. Here is the method: The metabolic stability was checked in human serum at 37 °C in presence and in absence of 1,10 phenanthroline monohydrate, a well-known metalloprotease inhibitor (Wijayanti et al. [2006]) at appropriate periods of time (0, 15, 30, 60 min). In two different tubes containing 200 μL of human serum plasma previously incubated at 37 °C was added 40 μL of ^67Ga-P04087 labelling solution. 4 μL of 1 mg/mL of 1,10 phenanthroline monohydrate in ethanol was added only in one of the two tubes. At 0, 15, 30 and 60 min, 20 μL aliquots were collected and proteins were precipitated with 200 μL of methanol. Samples were then filtered with 0.2 μm Whatman filter (13 mm) and the methanol was then evaporated with a stream of nitrogen. The resulting dry residue was dissolved in 200 μL water and then analyzed by C18-radio-HPLC using the equipment mentioned above.

In data set [4] the test system is phosphatidylserine in valve vegetations. As to the kind of experiment: In vivo binding to PS in rat model of infective endocarditis (SPECT/CT, autoradiography). To be noted: intravenous injection, intense signal in the bladder.
Data set [5] can be described thus: Peptide stability in Hank's medium with 10% foetal calf serum. The format is in vitro ADME. To be noted: 37 °C; for Stability result: Hanks + 10% FCS, 2 h incubation, in darkness, triplicate, sampled at 0, 1 h, 2 h, TCA precipitation, LC/ES/MS; for Stability in Hanks media supplied or not with foetal calf serum: Hanks media with or without FCS, two hours. Here is the method:
A 100 μL solutions of R824 (PGDLSR), R825 (DAHSFS) and R826 (LIKKPF) in Hank’s medium and 10% FCS (foetal calf serum) were prepared and incubated (in triplicate) for 2 h at 37 °C and in complete darkness. At 0, 1 h and 2 h, 100 μL were sampled from each tube; 200 μL of 0.6 M trichloroacetic acid were added. The mixtures were then centrifuged at 20,000 g for 10 min at 4 °C. One microliter of each supernatant was then analyzed by LC/ES/MS.

Here are results for five compounds from publication PMC5835976, “Synthesis, gallium labelling and characterization of P04087, a functionalized phosphatidylserine-binding peptide” (EJNMMI Radiopharmacy and Chemistry, 2017).

Where no end group is shown, it is not given here.

For “99mTc-AnnexinV: technetium 99m-labelled Annexin V, protein imaging agent targeting PS”, in data set [1], the “affinity to PS” value is listed as 6*10^−9 M. For the same compound, in data set [2], the “uptake ratio for autoradiography” value was 2 and the “uptake ratio for in vivo acquisitions” value was 1.3.

With `CC(C)C[C@H](NC(=O)[C@H](CC(=O)O)NC(=O)CNC(=O)[C@@H]1CCCN1C(=O)CCNC(=O)CCC(C(=O)O)N1CCN(CC(=O)O)CCN(CC(=O)O)CC1)C(=O)N[C@@H](CO)C(=O)N[C@@H](CCCNC(=N)N)C(=O)O` (some centres unmarked) [Peptide 67Ga-P04087, metal not drawn], the “Radiochemical purity in human serum with 1,10 phenanthroline monohydrate” value in data set [3] was 100%. Besides, the “Renal elimination on SPECT/CT” value in data set [4] is recorded as “rapid renal elimination”.

As to DAHSFS [Peptide R825], in data set [5], the Stability result is on record as “Stable” and the “Stability in Hanks media supplied or not with foetal calf serum” value (“Stability in Hanks media supplied or not” for short) was “stable”.

Consider LIKKPF [Peptide R826], for which, in data set [5], the Stability result is reported as “Total degradation 1 h after the start of incubation” and the “Stability in Hanks media supplied or not” value is “quickly degraded”.

Turning to PGDLSR [Peptide R824], in data set [5], the Stability result is listed as “Stable” and the “Stability in Hanks media supplied or not” value is recorded as “stable”.
